Experimental data published in US11407725B2 (The Board of Trustees of the University of Illinois, priority 2018, dated 2022).
Values joined by “and” are separate entries in the source; they are usually repeats but may differ in a detail not shown here. Identical values can stand only once.

Columns and labels:
A549 cells = assay: Flow cytometry of A549 cells with red-AlDeSense; type: cell-based
Procedure: (§1) For all cell lines, 200,000 cells in a single-cell suspension were transferred into 1.5 mL Eppendorf tubes. Cells were pelleted by centrifugation at 400 g for 5 minutes at room temperature. After removing the supernatant by aspiration, cells were resuspended in 300 μL premixed PBS supplemented with verapamil, probenecid, and novobiocin. […] Samples were immediately stored on ice. Cells were stained with red-AlDeSense or Ctrl-red-AlDeSense (100 μL of 4 μM dye solution; dyes were normalized by fluorescence spectroscopy). Samples were analyzed on a BD LSR II Flow Cytometry Analyzer using a 488 nm laser and a 550 LP and 610/30 filter set. Samples were analyzed every 5 minutes for 15 minutes, with the samples being placed back on ice between data collection. Data were analyzed on FCS Express 6.04.

K562 cells [1] = assay: Flow cytometry of K562 cells with red-AlDeSense; type: cell-based, human; details: 1 μM dye
Procedure: as §1

ALDH1A1 [2] = biological target: T1, ALDH1A1 (Homo sapiens, UniProt P00352); assay: ALDH isoform selectivity of red probes: ALDH1A1; type: biochemical
T1 construct: made in house
T1 sequence (P00352 1-501): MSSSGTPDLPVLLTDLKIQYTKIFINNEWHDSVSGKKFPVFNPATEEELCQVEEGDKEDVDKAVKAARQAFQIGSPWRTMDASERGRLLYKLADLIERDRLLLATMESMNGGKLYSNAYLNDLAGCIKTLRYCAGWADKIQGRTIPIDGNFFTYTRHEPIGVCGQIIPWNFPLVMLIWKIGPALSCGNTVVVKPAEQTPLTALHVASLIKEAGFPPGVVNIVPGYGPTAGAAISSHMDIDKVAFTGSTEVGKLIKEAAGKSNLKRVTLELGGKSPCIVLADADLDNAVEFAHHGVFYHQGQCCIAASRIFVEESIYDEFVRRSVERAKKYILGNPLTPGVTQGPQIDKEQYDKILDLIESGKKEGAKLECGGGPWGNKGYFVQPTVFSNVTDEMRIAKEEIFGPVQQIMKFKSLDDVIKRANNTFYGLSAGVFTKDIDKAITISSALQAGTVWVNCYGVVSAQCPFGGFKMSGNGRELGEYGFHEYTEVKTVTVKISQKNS
Procedure: Each ALDH isoform was added to a 50 mM triethanolamine solution (pH 7.4) containing 2.0 mM NAD^+ and 100 μM substrate at room temperature. Benzaldehyde was the substrate for ALDH3A1. Propanal was the substrate for all other isoforms. ALDH isoform activity was determined by monitoring the rate of NADH production through the increase in absorbance at 340 nm (ε=6220 M^−1cm^−1). For these assays, 1 unit is defined as the amount of enzyme that catalyzes the conversion of […] per minute. For every combination of dye and enzyme, 2 μM dye was preincubated with 2.0 mM NAD^+ in 50 mM triethanolamine solution (pH 7.4). The reaction was initiated by addition of 1 unit of ALDH. Dyes were excited at 590 nm, and fluorescence was measured continuously at 610 nm.

K562 cells [3] = assay: Trypan blue cytotoxicity / viability assay; type: cell-based; details: K562 cells; 6, 12 and 24 hours
Procedure: K562 cells were plated in a 96-well plate with 50,000 cells per well. Each well was filled to a final volume of 100 μL IMDM media with 0.25% DMSO. Wells were tested using red-AlDeSense or Ctrl-red-AlDeSense (1 μM and 5 μM each) or using a DMSO control. After 6-, 12-, and 24-hour incubation periods at 37° C. and 5% CO2, a 10 μL sample was removed from each condition and combined with 10 μL 0.4% w/v trypan blue in PBS. Samples were incubated for 3 minutes at room temperature before being loaded on a hemocytometer where live and dead cells were counted. Conditions were tested in triplicate for each time point. Samples were analyzed on an EVOS digital inverted microscope using transmitted white light for brightfield imaging and the Cy5 filter cube for trypan blue visualization.
K562 cells were plated in a 96-well plate at a density of 500,000 cells/mL in full IMDM media supplemented with either 1 μM or […] AlDeSense AM. Equivalent samples were supplemented with 1 μM or […] as a vehicle control. At 6, 12, and 24 hours, a 10 μL sample was removed from each of the samples and mixed 1:1 with a 0.4% wt/volume trypan blue solution in PBS. Samples were incubated for 1 minute at room temperature before being loaded onto a hemocytometer where live and dead cells were counted. Each sample was made in triplicate for each time point.

ALDH1A1 [4] = biological target: T1, ALDH1A1; assay: ALDH1A1 kinetics; type: biochemical
Procedure: Solutions were prepared of 2.0 mM NAD+ and 0.1-2.5 μM AlDeSense or red-AlDeSense in 50 mM triethanolamine solution (pH 7.4). For every concentration, 1 unit of enzyme (as defined and determined in ALDH Isoform Selectivity) was added. Fluorescence was monitored for 30 seconds to determine V0. AlDeSense was excited at 490 nm and monitored at 510 nm. Red-AlDeSense was excited at 590 nm and monitored at 610 nm. Each condition was performed in triplicate. Protein concentration was determined using the Pierce™ BCA Protein Assay Kit. Data was analyzed using Microsoft Excel.

[5] = Response to reactive species, biological thiols and amines (chemostability)
Procedure: (e) Response of AlDeSense to various reactive oxygen species, biological thiols, and amines at concentrations of 100 μM (GSH was tested at 1 mM). For all assays, AlDeSense was used at 1 μM final concentration.
All assays were performed in 50 mM triethanolamine buffer red-AlDeSense was used at 2 μM. Enzyme concentrations affording 1 nmol substrate/minute were used. Reactive species were tested at 100 μM, except glutathione which was at 1 mM.

[6] = Photophysical properties (absorbance, emission, extinction coefficient, quantum yield); type: physicochemical; details: for λabs: maximum absorbance
Log D7.4 = type: physicochemical; details: pH 7.4
[7] = tested on: e-CSC and non-CSC B16F0 tumors; assay: In vivo melanoma tumor fluorescence imaging; set-up: species or system mice; details: 1 and 2 weeks

Procedure for physchem: The fluorescence of 1 μM of each compound was measured in 40 mM Britton-Robinson buffer at pH 2-9 in 0.5 pH intervals. Each measurement was performed in triplicate. […] Error bars are ±standard deviation (SD).

Cc1cc(C=O)c(F)c(F)c1C1=C2C=CC(=O)C=C2[Si](C)(C)c2cc(O)ccc21
extent of red-AlDeSense activation with DEAB (A549 cells; A549 cells, plus 20 μM DEAB): 67.8±3.4%
A549 cells displaying high ALDH1A1 activity (A549 cells; flow cytometry, 1 μM dye): 78.1±0.3%
K562 cells with high ALDH1A1 activity (K562 cells [1]): 39.0±8.3%
pKa (physchem): 6.68
turn-on response when treated with ALDH1A1 (ALDH1A1 [2]): 3.2 fold
Enzyme Activity 1A1 (ALDH1A1 [2]; Table 2): High
Enzymatic Turn On (ALDH1A1 [2]; Table 2, ALDH1A1, 2 μM dye): 3.2
toxicity in cell viability assay (K562 cells [3]): nontoxic
higher catalytic efficiency (kcat/Km) versus AlDeSense (ALDH1A1 [4]): 2.3 fold
chemostability across reactive oxygen, nitrogen and sulfur species ([5]; species 100 μM, glutathione 1 mM, 2 μM red-AlDeSense): only ALDH1A1 elicited turnover
bathochromic shift in absorbance and emission compared to AlDeSense [6]: 100 nm
maximum emission (λem) [6]: 614 nm
Quantum Yield ([6]; Probes 1-8): 0.21
λabs [6]: 594 nm

Cc1cc(C=O)ccc1-c1c2cc(F)c(=O)cc-2oc2cc(O)c(F)cc12 [AlDeSense]
logD (Log D7.4): 0.88
signal in e-CSC versus non-CSC tumors [7]: consistently higher signal
toxicity in cell viability assay (K562 cells [3]): non-toxic
response to thiols and amines ([5]; 100 μM (GSH 1 mM), 1 μM AlDeSense): did not detect formation of fluorescent hemithioacetal and Schiff base products
response to panel of reactive oxygen species ([5]; 100 μM species, 1 μM AlDeSense): did not observe any oxidized fluorescent products
ε [6]: 61000 M⁻¹ cm⁻¹
λcm ([6]; Table 1): 516 nm
ΔE00 ([6]; at 503 nm, intersecting wavelength of normalized absorbance and emission): 2.46 eV
λabs [6]: 496 nm
ΦF ([6]; prior to activation): 0.04 and 0.041
